The nature of this series: Half-lives and pharmacokinetic parameters of polypeptides vs HM-1. As to conditions: in vivo; for half-life: T1/2β (half-life).

SMILES strings stand for the structures. Peptide text beside a SMILES is read from it. * marks the point of attachment. X22 = O=C1C=CC(=O)N1CCOCCOCCOCCOCCOCCOCCCCCC(=O)*; X40 = O=C1C=CC(=O)N1c1ccc(CCCCCCCCC(=O)*)cc1; X27 = O=C1C=CC(=O)N1CCOCCOCCOCCOCCCCCC(=O)*; X43 = O=C1C=CC(=O)N1c1ccc(CCCCCCC(=O)*)cc1; X6 = O=C1C=CC(=O)N1CCOCCOCCOCCCCCCCC(=O)*; X69 = O=C1C=CC(=O)N1c1ccc(CCCCC(=O)*)cc1; X56 = O=C1C=CC(=O)N1c1ccc(CCC(=O)*)cc1; X2 = O=C1C=CC(=O)N1CCOCCOCCCCCC(=O)*; X83 = O=C1C=CC(=O)N1CCCCCCC(=O)*

The term AUC(0-inf) denotes the area under the concentration-time curve extrapolated to infinity. The low end stands for low exposure, the high end for high exposure. Broadly, the MRT inf is the average time that molecules of a dose stay in the body. As a reminder, the clearance is a measure of how efficiently the substance is removed, as volume per time. A higher clearance goes with efficient removal. Broadly, the half-life is the time needed for the level to fall by half in the phase considered. Low values mean fast loss, high ones slow loss.

Turning to `C[C@H](NC(=O)CNC(=O)[C@H](CCCNC(=N)N)NC(=O)CCc1ccc(N2C(=O)C=CC2=O)cc1)C(=O)N[C@@H](CC(=O)O)C(=O)N[C@@H](CCCNC(=N)N)C(=O)N[C@@H](C)C(=O)NCC(=O)NCC(=O)NCC(=O)NCC(=O)N[C@@H](CCCNC(=N)N)C(=O)NCC(=O)N[C@@H](CC(=O)O)C(=O)O` [X38] (X56-RGADRAGGGGRGD-OH), the AUC(0-inf) came to 31400 ± 7550 ng·h/mL, the MRT inf was found to be 56.2 ± 11.2 h, the clearance was 0.532 mL/min/kg and the half-life was 38.94 ± 0.25 h.
For the molecule `C[C@H](NC(=O)CNC(=O)[C@H](CCCNC(=N)N)NC(=O)CCCCCCCOCCOCCOCCN1C(=O)C=CC1=O)C(=O)N[C@@H](CC(=O)O)C(=O)N[C@@H](CCCNC(=N)N)C(=O)N[C@@H](C)C(=O)NCC(=O)NCC(=O)NCC(=O)NCC(=O)N[C@@H](CCCNC(=N)N)C(=O)NCC(=O)N[C@@H](CC(=O)O)C(=O)O` [X69] (X6-RGADRAGGGGRGD-OH), the total exposure AUC(0-inf) is 26900 ± 8290 ng·h/mL, the MRT inf was found to be 48.2 ± 14.3 h, the clearance was 0.62 mL/min/kg and the half-life was 33.38 ± 0.32 h.
`C[C@H](NC(=O)CNC(=O)[C@H](CCCNC(=N)N)NC(=O)CCCCCOCCOCCN1C(=O)C=CC1=O)C(=O)N[C@@H](CC(=O)O)C(=O)N[C@@H](CCCNC(=N)N)C(=O)N[C@@H](C)C(=O)NCC(=O)NCC(=O)NCC(=O)NCC(=O)N[C@@H](CCCNC(=N)N)C(=O)NCC(=O)N[C@@H](CC(=O)O)C(=O)O` [X60] (X2-RGADRAGGGGRGD-OH) gave an area under the curve AUC(0-inf) of 30200 ± 7290 ng·h/mL, an MRT inf of 54.1 ± 11.7 h, a clearance of 0.552 mL/min/kg and a half-life of 37.51 ± 0.25 h.
In turn, `C[C@H](NC(=O)CNC(=O)[C@H](CCCNC(=N)N)NC(=O)CCCCCCc1ccc(N2C(=O)C=CC2=O)cc1)C(=O)N[C@@H](CC(=O)O)C(=O)N[C@@H](CCCNC(=N)N)C(=O)N[C@@H](C)C(=O)NCC(=O)NCC(=O)NCC(=O)NCC(=O)N[C@@H](CCCNC(=N)N)C(=O)NCC(=O)N[C@@H](CC(=O)O)C(=O)O` [X42] (X43-RGADRAGGGGRGD-OH) gave an AUC(0-inf) of 27100 ± 8010 ng·h/mL, a mean residence time MRT inf of 48.5 ± 10.6 h, a clearance of 0.615 mL/min/kg and a half-life of 33.58 ± 0.24 h.
For `C[C@H](NC(=O)CNC(=O)[C@H](CCCNC(=N)N)NC(=O)CCCCc1ccc(N2C(=O)C=CC2=O)cc1)C(=O)N[C@@H](CC(=O)O)C(=O)N[C@@H](CCCNC(=N)N)C(=O)N[C@@H](C)C(=O)NCC(=O)NCC(=O)NCC(=O)NCC(=O)N[C@@H](CCCNC(=N)N)C(=O)NCC(=O)N[C@@H](CC(=O)O)C(=O)O` [X40] (X69-RGADRAGGGGRGD-OH), the AUC(0-inf) was 34000 ± 7830 ng·h/mL, the mean residence time MRT inf was determined as 60.9 ± 10.7 h, the clearance was 0.49 mL/min/kg and the half-life is 42.23 ± 0.27 h.
On to `C[C@H](NC(=O)CNC(=O)[C@H](CCCNC(=N)N)NC(=O)CCCCCCN1C(=O)C=CC1=O)C(=O)N[C@@H](CC(=O)O)C(=O)N[C@@H](CCCNC(=N)N)C(=O)N[C@@H](C)C(=O)NCC(=O)NCC(=O)NCC(=O)NCC(=O)N[C@@H](CCCNC(=N)N)C(=O)NCC(=O)N[C@@H](CC(=O)O)C(=O)O` [X6] (X83-RGADRAGGGGRGD-OH), for which the AUC(0-inf) is 30500 ± 7170 ng·h/mL, the mean residence time (MRT inf) is 54.6 ± 12.2 h, the clearance was 0.547 mL/min/kg and the half-life was 37.86 ± 0.28 h.
As to `C[C@H](NC(=O)CNC(=O)[C@H](CCCNC(=N)N)NC(=O)CCCCCOCCOCCOCCOCCOCCOCCN1C(=O)C=CC1=O)C(=O)N[C@@H](CC(=O)O)C(=O)N[C@@H](CCCNC(=N)N)C(=O)N[C@@H](C)C(=O)NCC(=O)NCC(=O)NCC(=O)NCC(=O)N[C@@H](CCCNC(=N)N)C(=O)NCC(=O)N[C@@H](CC(=O)O)C(=O)O` [X88] (X22-RGADRAGGGGRGD-OH), the AUC(0-inf) stood at 31800 ± 7130 ng·h/mL, the MRT inf was found to be 56.9 ± 10.1 h, the clearance is 0.523 mL/min/kg and the half-life was 39.45 ± 0.33 h.
Molecule `C[C@H](NC(=O)CNC(=O)[C@H](CCCNC(=N)N)NC(=O)CCCCCOCCOCCOCCOCCN1C(=O)C=CC1=O)C(=O)N[C@@H](CC(=O)O)C(=O)N[C@@H](CCCNC(=N)N)C(=O)N[C@@H](C)C(=O)NCC(=O)NCC(=O)NCC(=O)NCC(=O)N[C@@H](CCCNC(=N)N)C(=O)NCC(=O)N[C@@H](CC(=O)O)C(=O)O` [X74] (X27-RGADRAGGGGRGD-OH) gave an AUC(0-inf) of 33700 ± 7090 ng·h/mL, an MRT inf of 60.4 ± 13.7 h, a clearance of 0.495 mL/min/kg and a half-life of 41.82 ± 0.29 h.
In the same order, the values of `C[C@H](NC(=O)CNC(=O)[C@H](CCCNC(=N)N)NC(=O)CCCCCCCCc1ccc(N2C(=O)C=CC2=O)cc1)C(=O)N[C@@H](CC(=O)O)C(=O)N[C@@H](CCCNC(=N)N)C(=O)N[C@@H](C)C(=O)NCC(=O)NCC(=O)NCC(=O)NCC(=O)N[C@@H](CCCNC(=N)N)C(=O)NCC(=O)N[C@@H](CC(=O)O)C(=O)O` [X44] (X40-RGADRAGGGGRGD-OH) are 26800 ± 8440 ng·h/mL, 48 ± 11.6 h, 0.622 mL/min/kg and 33.26 ± 0.28 h.

For the origin of these results see patent US20200270309A1, “MALEIMIDE GROUP-MODIFIED ANGIOGENESIS INHIBITOR HM-1 AND USE THEREOF” (NANJING ANJI BIOLOGICAL TECHNOLOGY CO., LTD, priority 2017, published 2020).
